Measured values published in paper PMC3925373 (Bioorganic & medicinal chemistry, 2013).
Counter-ions that a name gives are not always drawn. Like-named read-outs stand apart in the source and are kept apart here.

Columns and labels:
[1] = biological target: Bacillus anthracis lethal factor (Bacillus anthracis, UniProt P15917); test: biochemical; assay type: biochemical
[2] = biological target: BoNT/A LC (Clostridium botulinum, UniProt P0DPI0); test: biochemical; assay type: biochemical, Clostridium bolulinum
Chain of BoNT/A LC (P0DPI0 2-448 limits assumed): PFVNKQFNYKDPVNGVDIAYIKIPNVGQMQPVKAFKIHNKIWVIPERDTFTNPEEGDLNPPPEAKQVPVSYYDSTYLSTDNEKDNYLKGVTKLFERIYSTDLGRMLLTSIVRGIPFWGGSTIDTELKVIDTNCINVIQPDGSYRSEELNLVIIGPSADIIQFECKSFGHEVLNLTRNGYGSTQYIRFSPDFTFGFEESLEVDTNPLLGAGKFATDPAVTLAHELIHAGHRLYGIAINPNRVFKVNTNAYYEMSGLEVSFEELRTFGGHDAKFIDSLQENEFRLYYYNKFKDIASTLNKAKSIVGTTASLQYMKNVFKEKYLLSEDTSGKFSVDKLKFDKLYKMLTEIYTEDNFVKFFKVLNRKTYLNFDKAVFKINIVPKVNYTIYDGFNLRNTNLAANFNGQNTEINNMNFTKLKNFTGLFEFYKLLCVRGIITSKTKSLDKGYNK

[3] = biological target: BaLF (Bacillus anthracis, UniProt P15917); assay type: biochemical
Chain of BaLF (P15917 34-809 limits assumed): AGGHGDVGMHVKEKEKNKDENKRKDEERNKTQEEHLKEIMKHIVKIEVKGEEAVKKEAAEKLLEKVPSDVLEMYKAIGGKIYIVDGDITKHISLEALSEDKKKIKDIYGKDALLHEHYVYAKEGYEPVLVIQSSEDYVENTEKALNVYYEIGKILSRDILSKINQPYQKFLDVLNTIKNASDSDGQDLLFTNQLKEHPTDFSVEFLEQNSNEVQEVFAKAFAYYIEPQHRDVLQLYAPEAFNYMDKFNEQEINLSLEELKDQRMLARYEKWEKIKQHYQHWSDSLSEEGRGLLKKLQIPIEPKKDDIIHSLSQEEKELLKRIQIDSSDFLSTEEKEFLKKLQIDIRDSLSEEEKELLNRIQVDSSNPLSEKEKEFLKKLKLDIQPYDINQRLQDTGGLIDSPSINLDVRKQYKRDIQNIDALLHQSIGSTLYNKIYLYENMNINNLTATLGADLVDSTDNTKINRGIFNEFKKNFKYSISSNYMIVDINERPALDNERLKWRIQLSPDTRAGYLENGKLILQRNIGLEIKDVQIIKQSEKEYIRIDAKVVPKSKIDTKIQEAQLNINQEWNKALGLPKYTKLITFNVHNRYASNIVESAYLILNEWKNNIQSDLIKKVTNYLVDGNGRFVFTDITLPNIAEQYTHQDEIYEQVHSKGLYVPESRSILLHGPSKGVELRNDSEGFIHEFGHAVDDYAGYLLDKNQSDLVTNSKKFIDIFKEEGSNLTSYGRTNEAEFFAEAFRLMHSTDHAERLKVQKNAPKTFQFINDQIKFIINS

[4] = biological target: T1, Human matrix metalloprotease-1 (Homo sapiens, UniProt P03956); test: Human MMP-1 FRET assay; assay type: biochemical
T1 sequence (P03956 100-469): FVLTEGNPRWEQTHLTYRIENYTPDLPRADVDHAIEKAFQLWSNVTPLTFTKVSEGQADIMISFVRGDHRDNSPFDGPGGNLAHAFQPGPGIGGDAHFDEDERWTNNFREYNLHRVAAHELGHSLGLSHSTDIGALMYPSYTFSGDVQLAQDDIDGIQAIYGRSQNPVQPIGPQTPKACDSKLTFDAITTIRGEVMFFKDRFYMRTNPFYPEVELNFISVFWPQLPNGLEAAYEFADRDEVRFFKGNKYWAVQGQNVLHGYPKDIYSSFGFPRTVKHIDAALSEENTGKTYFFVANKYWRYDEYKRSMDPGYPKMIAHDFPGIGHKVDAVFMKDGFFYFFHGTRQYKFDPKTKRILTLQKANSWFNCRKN

Chain of Bacillus anthracis lethal factor (P15917 34-809 limits assumed): as the sequence (P15917 34-809 limits assumed) above

| Compound | LF inhibitory activity (in words) [1] | other results |
| --- | --- | --- |
| CCOc1ccccc1CCC(=O)Nc1ccc2nc(C)cc(N)c2c1 [Compound 18ii, N-(4-Amino-2-methylquinolin-6-yl)-3-(2-ethoxyphenyl)propionamide trifluoroacetate] | activity was also totally lost | – |
| N-(4-Amino-2-methylquinolin-6-yl)quinoline-2-carboxamide trifluoroacetate [Compound 18g] | – | IC50 ([1]; read-out: IC50 LF): 52 µM |
| COc1ccc(Cl)cc1CCC(=O)Nc1ccc2nc(C)cc(N)c2c1 [Compound 18ff, N-(4-Amino-2-methylquinolin-6-yl)-3-(5-chloro-2-methoxyphenyl)propionamide trifluoroacetate] | inactive | – |
| Cc1cc(N)c2cc(NC(=O)CCc3ccccc3OC(=O)c3ccccc3)ccc2n1 [Compound 18y, N-(4-Amino-2-methylquinolin-6-yl)-3-(2-benzoyloxyphenyl)propionamide trifluoroacetate] | inactive | – |
| Cc1cc(N)c2cc(NC(=O)Nc3ccc4c(c3)OCO4)ccc2n1 [Compound 20a, 1-(4-Amino-2-methylquinolin-6-yl)-3-(benzo[d][1,3]dioxol-5-yl)urea trifluoroacetate] | – | IC50 [1]: 87 µM; IC50 [2]: 51 µM |
| COc1ccsc1CCC(=O)Nc1ccc2nc(C)cc(N)c2c1 [Compound 18pp, N-(4-Amino-2-methylquinolin-6-yl)-3-(3-methoxythiophene-2-yl)propionamide trifluoroacetate] | devoid of activity | – |
| COc1ccccc1CCC(=O)Nc1ccc2nc(C)cc(N)c2c1 [Compound 18t, N-(4-Amino-2-methylquinolin-6-yl)-3-(2-methoxyphenyl)propionamide trifluoroacetate] | – | mechanism of inhibition on BaLF activity [3]: noncompetitive |
| Cc1cc(N)c2cc(NC(=O)Nc3ccc4nc(C)cc(N)c4c3)ccc2n1 [Compound 1] | – | IC50 [4]: > 100 µM |
| COc1cc(-c2cccnc2)ccc1CCC(=O)Nc1ccc2nc(C)cc(N)c2c1 [Compound 35, N-(4-Amino-2-methylquinolin-6-yl)-3-(2-methoxy-4-(pyridin-3-yl)phenyl)propanamide] | – | IC50 [1]: 55 µM |
| COc1ccc(Br)cc1CCC(=O)Nc1ccc2nc(C)cc(N)c2c1 [Compound 18ee, N-(4-Amino-2-methylquinolin-6-yl)-3-(5-bromo-2-methoxyphenyl)propionamide trifluoroacetate] | inactive | – |
| COc1ccncc1CCC(=O)Nc1ccc2nc(C)cc(N)c2c1 [Compound 18oo, N-(4-Amino-2-methylquinolin-6-yl)-3-(4-methoxypyridin-3-yl)propionamide] | devoid of activity | – |
| COc1cccc(CCC(=O)Nc2ccc3nc(C)cc(N)c3c2)c1OC [Compound 18x, N-(4-Amino-2-methylquinolin-6-yl)-3-(2,3-dimethoxyphenyl)propionamide p-toluenesulfonate] | complete loss of activity | – |
| Cc1cc(N)c2cc(NC(=O)c3ccc(-c4ccc5ncccc5c4)cc3)ccc2n1 [Compound 18m, N-(4-Amino-2-methylquinolin-6-yl)-4-(quinoline-6-yl)benzamide trifluoroacetate] | – | mechanism of inhibition on BaLF activity [3]: noncompetitive |
| COc1ccc(OC)c(CCC(=O)Nc2ccc3nc(C)cc(N)c3c2)c1 [Compound 18w, N-(4-Amino-2-methylquinolin-6-yl)-3-(2,5-dimethoxyphenyl)propionamide p-toluenesulfonate] | complete loss of activity | – |
| Cc1cc(N)c2cc(NC(=O)CCc3ccccc3C)ccc2n1 [Compound 18aa, N-(4-Amino-2-methylquinolin-6-yl)-3-(2-methylphenyl)propionamide trifluoroacetate] | inactive | – |
| Cc1cc(N)c2cc(NC(=O)CCc3ccccc3Cl)ccc2n1 [Compound 18z, N-(4-Amino-2-methylquinolin-6-yl)-3-(2-chlorophenyl)propionamide trifluoroacetate] | inactive | – |
| COc1ccc(CCC(=O)Nc2ccc3nc(C)cc(N)c3c2)cc1 [Compound 18u, N-(4-Amino-2-methylquinolin-6-yl)-3-(4-methoxyphenyl)propionamide p-toluenesulfonate] | LF inhibitory activity was lost | – |
| COc1cccc(CCC(=O)Nc2ccc3nc(C)cc(N)c3c2)c1 [Compound 18v, N-(4-Amino-2-methylquinolin-6-yl)-3-(3-methoxyphenyl)propionamide trifluoroacetate] | LF inhibitory activity was lost | – |
| N-(4-Amino-2-methylquinolin-6-yl)isoquinoline-3-carboxamide trifluoroacetate [Compound 18h] | – | IC50 ([2]; read-out: IC50 BoNT/A): > 100 µM |
